{"source": "patent US20210330661A1", "about": "(China Medical University, priority 2020, published 2021)", "key": {"[1]": {"tested_on": "SARS-CoV-2 (strain NTU02) in Vero E6 cells", "assay_type": "cell-based", "details": "pre-treatment, 48 hours, MOI 0.0003, FIG. 13"}, "[2]": {"target": "T1, SARS-CoV-2 M^pro (Severe acute respiratory syndrome coronavirus 2, UniProt P0DTD1)", "assay": "Soluble fraction / stability of Mpro in presence of drug", "details": "concentration up to 500 μM; FIG. 4"}, "[3]": {"target": "T1, SARS-CoV-2 M^pro", "assay_type": "binding", "details": "various concentrations; FIG. 2A, 2B"}, "[4]": {"target": "T1, SARS-CoV-2 M^pro", "assay": "FRET assay of SARS-CoV-2 Mpro activity with tafenoquine or hydroxychloroquine", "assay_type": "biochemical", "details": "FIG. 1"}, "[5]": {"target": "T1, SARS-CoV-2 M^pro", "assay": "Limited proteolysis assay by trypsin digestion", "details": "drug 0, 30, 60, 90 μM; FIG. 5A, 5B", "protocol": "To further probe the conformational changes of SARS-CoV-2 M^pro, the limited proteolysis assay by trypsin digestion is performed. […] Proteolysis is performed by mixing SARS-CoV-2 M^pro (0.8 mg/ml) with trypsin at a protease-to-protein ratio of 1:10 (w/w) in a reaction buffer (25 mM Tris at pH 8.0, 150 mM NaCl) at 37° C. for 30 minutes. The reaction is stopped by adding SDS sample loading buffer and boiling at 95° C. for 10 minutes and subjected to SDS-PAGE (4%-20%)."}, "[6]": {"target": "T1, SARS-CoV-2 M^pro", "assay": "FRET assay of SARS-CoV-2 Mpro activity with boceprevir or narlaprevir", "assay_type": "biochemical", "details": "50 μM drug; 1 μM Mpro; FIG. 6; read-out: inhibitory effect on SARS-CoV-2 Mpro activity"}, "[7]": {"tested_on": "SARS-CoV-2 (strain NTU02) in Vero E6 cells", "assay": "microbe, parasite or virus in culture", "assay_type": "cell-based"}, "[8]": {"tested_on": "SARS-CoV-2 (strain NTU02) in Vero E6 cells", "assay_type": "cell-based", "details": "5 μM; compared with DMSO; 3-day post infection; FIG. 12"}, "[9]": {"tested_on": "SARS-CoV-2 (strain NTU02) in Vero E6 cells", "assay_type": "cell-based", "details": "pre-treated cells, various concentrations; compared to DMSO control; 3-day post infection; FIG. 14"}}, "note": "Like-named read-outs stand apart in the source and are kept apart here."}
{"smiles": "CCC(CC)COC(=O)[C@H](C)N[P@](=O)(OC[C@H]1O[C@@](C#N)(c2ccc3c(N)ncnn23)[C@H](O)[C@@H]1O)Oc1ccccc1", "note": "[remdesivir]", "values": [{"measurement": "inhibition rate against viral RNA production", "setting": "[1]; 1 μM remdesivir", "result": "~26.3", "unit": "%"}]}
{"smiles": "CCN(CCO)CCCC(C)Nc1ccnc2cc(Cl)ccc12", "note": "(centres unmarked) [hydroxychloroquine]", "values": [{"measurement": "stability of Mpro", "setting": "[2]", "result": "does not influence the stability"}, {"measurement": "shift in melting temperature / thermal stability of Mpro", "setting": "[3]", "result": "no influence on the thermal stability"}, {"measurement": "inhibitory effect on SARS-CoV-2 Mpro", "setting": "[4]; various concentrations", "result": "does not demonstrate any significant inhibitory effects"}, {"measurement": "cleavage of Mpro by trypsin", "setting": "[5]", "result": "no concentrations of hydroxychloroquine tested reduce the cleavage"}]}
{"smiles": "CC(C)(C)NC(=O)N[C@H](C(=O)N1C[C@H]2[C@@H]([C@H]1C(=O)NC(CC1CCC1)C(=O)C(N)=O)C2(C)C)C(C)(C)C", "note": "(some centres unmarked) [boceprevir]", "values": [{"measurement": "inhibition at 50 µM", "setting": "[6]", "result": "76.5 ± 4.8", "unit": "%"}]}
{"smiles": "COc1cc(C)c2c(Oc3cccc(C(F)(F)F)c3)c(OC)cc(NC(C)CCCN)c2n1", "note": "(centres unmarked) [tafenoquine]", "values": [{"measurement": "viral RNA versus DMSO-treated group", "setting": "[7]; 2.5 μM, day not given, FIG. 10", "result": "no significant difference"}, {"measurement": "yield of viral RNA in cell supernatant", "setting": "[7]; Day 1 to Day 2 after infection, FIG. 10", "result": "significantly represses"}, {"measurement": "EC50", "setting": "[7]; Severe acute respiratory syndrome coronavirus 2, Vero C1008, 48 h, read-out: half maximal effective concentration (EC50)", "result": "~2500", "unit": "nM"}, {"measurement": "SARS-CoV-2-induced cytopathic effect", "setting": "[8]", "result": "significant decrease"}, {"measurement": "inhibition at 90 µM", "setting": "[4]; 90 μM, 4 μM Mpro, read-out: inhibition against SARS-CoV-2 Mpro", "result": "~90", "unit": "%"}]}
{"smiles": "CCCC[C@H](NC(=O)[C@@H]1[C@@H]2[C@H](CN1C(=O)[C@@H](NC(=O)NC1(CS(=O)(=O)C(C)(C)C)CCCCC1)C(C)(C)C)C2(C)C)C(=O)C(=O)NC1CC1", "note": "[narlaprevir]", "values": [{"measurement": "inhibition at 50 µM", "setting": "[6]", "result": "64.1 ± 2.5", "unit": "%"}, {"measurement": "inhibition rate against viral RNA production", "setting": "[1]; 40 μM narlaprevir", "result": "approximately 76.4%"}, {"measurement": "cytopathic effect induced by SARS-CoV-2 infection", "setting": "[9]", "result": "significantly lesser"}]}
